Measurements published in paper PMC6937300, “A novel phytocannabinoid isolated from Cannabis sativa L. with an in vivo cannabimimetic activity higher than Δ^9-tetrahydrocannabinol: Δ^9-Tetrahydrocannabiphorol” (Scientific Reports, 2019).

Biological target: T1, human CB1 receptor (Homo sapiens, UniProt P21554)
T1 construct: gene CNR1
T1 sequence (P21554 whole entry): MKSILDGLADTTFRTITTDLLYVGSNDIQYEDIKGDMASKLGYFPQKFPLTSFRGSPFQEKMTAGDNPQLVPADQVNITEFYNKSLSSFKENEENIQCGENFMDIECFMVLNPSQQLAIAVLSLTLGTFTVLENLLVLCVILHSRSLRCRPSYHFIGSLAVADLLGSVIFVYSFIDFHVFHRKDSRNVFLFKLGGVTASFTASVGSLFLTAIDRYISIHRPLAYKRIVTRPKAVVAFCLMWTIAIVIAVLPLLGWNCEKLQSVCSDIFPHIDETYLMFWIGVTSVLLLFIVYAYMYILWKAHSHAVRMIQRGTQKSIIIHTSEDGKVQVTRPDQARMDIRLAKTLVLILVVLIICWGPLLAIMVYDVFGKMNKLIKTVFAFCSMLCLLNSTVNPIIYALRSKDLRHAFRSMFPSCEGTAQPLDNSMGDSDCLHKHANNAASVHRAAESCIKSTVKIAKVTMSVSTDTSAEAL

CCCCCCCc1cc(O)c2c(c1)OC(C)(C)[C@@H]1CCC(C)=C[C@@H]21 [(-)-trans-Δ^9-THCP, (6aR,10aR)-3-heptyl-6,6,9-trimethyl-6a,7,8,10a-tetrahydro-6H-benzo[c]chromen-1-ol]
Ki: 1.2 nM
